What was measured:
[1] = test system: E. faecalis ATCC 29212 biofilm; assay: MBEC model (ASTM E2799), liquid formulas; type: cell-based; conditions: treated 24 hours
Protocol: (§1) The MBEC model (ASTM E2799) was used to assess the anti-biofilm efficacy of the liquid formulas. Biofilms were grown on polystyrene pegs in the MBEC model for either 24 or 48 hours before treatment. Using the liquid form of the EDTA complexes 24- and 48-hour biofilms were tested (Table 20).
(§2) 24- and 48-hour biofilms were formed using MBEC plate method and treated for 24 hours. Technical replicates n=3. Log reduction (LR) values show±standard error (SE) of LR value.

[2] = test system: P. aeruginosa NCTC 10662 biofilm; assay: MBEC model (ASTM E2799), liquid formulas; type: cell-based; conditions: treated 24 hours
Protocol: as §1, §2

[3] = test system: S. aureus ATCC 29213 biofilm; assay: MBEC model (ASTM E2799), liquid formulas; type: cell-based; conditions: treated 24 hours
Protocol: as §1, §2

[4] = test system: S. aureus MRSA BAA-43 biofilm; assay: MBEC model (ASTM E2799), liquid formulas; type: cell-based; conditions: treated 24 hours
Protocol: as §1, §2

[5] = test system: S. epidermidis ATCC 35984 biofilm; assay: MBEC model (ASTM E2799), liquid formulas; type: cell-based; conditions: treated 24 hours
Protocol: as §1, §2

[6] = Elution from loaded gauze; type: physicochemical
Protocol: The gauzes were weighed before soaking, after soaking and after drying for 24 hours. To assess the elution profile of the EDTA complexes from gauze, the loaded gauzes were immersed in water and saline (Table 6 and Table 7). […] After day 2, the eluting of silver, zinc and EDTA decreased more than 5 times compared to day 1.

[7] = Cumulative elution from carbopol hydrogel; type: physicochemical
Protocol: Hydrogels were loaded with EDTA compounds and investigated for elution of the silver, zinc and EDTA. Carbopol ETD 2020 was obtained from Lubrizol Advanced Materials, Inc. USA. 1.2 g carbopol power was dissolved in 42.36 g deionized water for 1 hour to fully hydrate. Then 8.4 ml of the EDTA complexes and 4.8 g glycerine were added into carbopol solution with vigorous stirring; finally, 3 g 50% triethanolamine was dropped into the suspension to obtain final products: carbopol hydrogel with EDTA complexes.
The silver, zinc and EDTA increased in saline day by day, which indicated the release of silver, zinc and EDTA can be controlled from the hydrogel.

Silver
Kill % ([1]; 50 ppm, 24-Hour Biofilm): 100%
LR ([1]; 50 ppm, 24-Hour Biofilm): 6.35
Kill % ([1]; 50 ppm, 48-Hour Biofilm): 100%
LR ([1]; 50 ppm, 48-Hour Biofilm): 6.40
Kill % ([1]; 100 ppm, 24-Hour Biofilm): 100%
LR ([1]; 100 ppm, 24-Hour Biofilm): 6.35
Kill % ([1]; 100 ppm, 48-Hour Biofilm): 100%
LR ([1]; 100 ppm, 48-Hour Biofilm): 6.40
Kill % ([2]; 50 ppm, 24-Hour Biofilm): 100%
LR ([2]; 50 ppm, 24-Hour Biofilm): 7.44
Kill % ([2]; 50 ppm, 48-Hour Biofilm): 100%
LR ([2]; 50 ppm, 48-Hour Biofilm): 8.44
Kill % ([2]; 100 ppm, 24-Hour Biofilm): 100%
LR ([2]; 100 ppm, 24-Hour Biofilm): 7.44
Kill % ([2]; 100 ppm, 48-Hour Biofilm): 100%
LR ([2]; 100 ppm, 48-Hour Biofilm): 8.44
Kill % ([3]; 50 ppm, 24-Hour Biofilm): 100%
LR ([3]; 50 ppm, 24-Hour Biofilm): 6.44
Kill % ([3]; 50 ppm, 48-Hour Biofilm): 100%
LR ([3]; 50 ppm, 48-Hour Biofilm): 6.50
Kill % ([3]; 100 ppm, 24-Hour Biofilm): 100%
LR ([3]; 100 ppm, 24-Hour Biofilm): 6.44
Kill % ([3]; 100 ppm, 48-Hour Biofilm): 100%
LR ([3]; 100 ppm, 48-Hour Biofilm): 6.50
Kill % ([4]; 50 ppm, 24-Hour Biofilm): 100%
LR ([4]; 50 ppm, 24-Hour Biofilm): 5.40
Kill % ([4]; 50 ppm, 48-Hour Biofilm): 100%
LR ([4]; 50 ppm, 48-Hour Biofilm): 6.43
Kill % ([4]; 100 ppm, 24-Hour Biofilm): 100%
LR ([4]; 100 ppm, 24-Hour Biofilm): 5.40
Kill % ([4]; 100 ppm, 48-Hour Biofilm): 100%
LR ([4]; 100 ppm, 48-Hour Biofilm): 6.43
Kill % ([5]; 50 ppm, 24-Hour Biofilm): 100%
LR ([5]; 50 ppm, 24-Hour Biofilm): 6.09
Kill % ([5]; 50 ppm, 48-Hour Biofilm): 100%
LR ([5]; 50 ppm, 48-Hour Biofilm): 6.41
Kill % ([5]; 100 ppm, 24-Hour Biofilm): 100%
LR ([5]; 100 ppm, 24-Hour Biofilm): 6.09
Kill % ([5]; 100 ppm, 48-Hour Biofilm): 100%
LR ([5]; 100 ppm, 48-Hour Biofilm): 6.41

O=C([O-])CN(CCN(CC(=O)[O-])CC(=O)[O-])CC(=O)[O-].[Ag+].[Ag+].[Zn+2] [EDTA compound 4, sample 2]
Elution in saline (ppm) EDTA ([6]; day 1): 17.31 ± 1.77 ppm
Elution in saline (ppm) Silver ([6]; day 1): 27.32 ± 3.84 ppm
Elution in saline (ppm) Zinc ([6]; day 1): 22.71 ± 1.75 ppm
Elution in water (ppm) EDTA ([6]; day 1): 13.23 ± 1.28 ppm
Elution in water (ppm) Silver ([6]; day 1): 23.32 ± 3.95 ppm
Elution in water (ppm) Zinc ([6]; day 1): 17.08 ± 3.09 ppm
Elution in saline (ppm) EDTA ([6]; day 2): 6.84 ± 2.67 ppm
Elution in saline (ppm) Silver ([6]; day 2): 8.36 ± 2.37 ppm
Elution in saline (ppm) Zinc ([6]; day 2): 7.67 ± 2.03 ppm
Elution in water (ppm) EDTA ([6]; day 2): 8.74 ± 2.01 ppm
Elution in water (ppm) Silver ([6]; day 2): 16.28 ± 3.75 ppm
Elution in water (ppm) Zinc ([6]; day 2): 12.78 ± 1.55 ppm
Elution in saline (ppm) EDTA ([6]; day 3): 1.75 ± 0.31 ppm
Elution in saline (ppm) Silver ([6]; day 3): 2.55 ± 0.94 ppm
Elution in saline (ppm) Zinc ([6]; day 3): 3.70 ± 0.20 ppm
Elution in water (ppm) EDTA ([6]; day 3): 1.55 ± 0.56 ppm
Elution in water (ppm) Silver ([6]; day 3): 3.82 ± 1.39 ppm
Elution in water (ppm) Zinc ([6]; day 3): 4.21 ± 1.19 ppm
Elution in saline (ppm) EDTA ([6]; day 4): 1.11 ± 0.61 ppm
Elution in saline (ppm) Silver ([6]; day 4): 1.46 ± 0.99 ppm
Elution in saline (ppm) Zinc ([6]; day 4): 3.48 ± 0.68 ppm
Elution in water (ppm) EDTA ([6]; day 4): 1.13 ± 0.57 ppm
Elution in water (ppm) Silver ([6]; day 4): 1.42 ± 0.40 ppm
Elution in water (ppm) Zinc ([6]; day 4): 3.37 ± 0.26 ppm
Elution in saline (ppm) EDTA ([6]; day 5): 0.54 ± 0.11 ppm
Elution in saline (ppm) Silver ([6]; day 5): 1.57 ± 1.43 ppm
Elution in saline (ppm) Zinc ([6]; day 5): 2.95 ± 1.46 ppm
Elution in water (ppm) EDTA ([6]; day 5): 0.79 ± 0.19 ppm
Elution in water (ppm) Silver ([6]; day 5): 0.59 ± 0.35 ppm
Elution in water (ppm) Zinc ([6]; day 5): 2.49 ± 0.88 ppm
Elution in saline (ppm) EDTA ([7]; day 1): 16.64 ± 1.41 ppm
Elution in saline (ppm) Silver ([7]; day 1): 21.10 ± 1.80 ppm
Elution in saline (ppm) Zinc ([7]; day 1): 15.30 ± 2.12 ppm
Elution in water (ppm) EDTA ([7]; day 1): 20.80 ± 3.07 ppm
Elution in water (ppm) Silver ([7]; day 1): 28.41 ± 3.48 ppm
Elution in water (ppm) Zinc ([7]; day 1): 20.77 ± 3.25 ppm
Elution in saline (ppm) EDTA ([7]; day 2): 17.31 ± 1.43 ppm
Elution in saline (ppm) Silver ([7]; day 2): 26.06 ± 2.03 ppm
Elution in saline (ppm) Zinc ([7]; day 2): 20.51 ± 3.94 ppm
Elution in water (ppm) EDTA ([7]; day 2): 22.50 ± 2.86 ppm
Elution in water (ppm) Silver ([7]; day 2): 29.03 ± 4.71 ppm
Elution in water (ppm) Zinc ([7]; day 2): 23.57 ± 2.12 ppm
Elution in saline (ppm) EDTA ([7]; day 3): 21.81 ± 0.42 ppm
Elution in saline (ppm) Silver ([7]; day 3): 31.27 ± 0.96 ppm
Elution in saline (ppm) Zinc ([7]; day 3): 23.98 ± 1.92 ppm
Elution in water (ppm) EDTA ([7]; day 3): 24.64 ± 1.57 ppm
Elution in water (ppm) Silver ([7]; day 3): 29.12 ± 2.73 ppm
Elution in water (ppm) Zinc ([7]; day 3): 22.53 ± 7.30 ppm
Elution in saline (ppm) EDTA ([7]; day 4): 22.70 ± 1.70 ppm
Elution in saline (ppm) Silver ([7]; day 4): 32.50 ± 0.96 ppm
Elution in saline (ppm) Zinc ([7]; day 4): 26.11 ± 1.08 ppm
Elution in water (ppm) EDTA ([7]; day 4): 24.30 ± 1.51 ppm
Elution in water (ppm) Silver ([7]; day 4): 29.89 ± 3.51 ppm
Elution in water (ppm) Zinc ([7]; day 4): 22.23 ± 1.97 ppm
Elution in saline (ppm) EDTA ([7]; day 5): 25.02 ± 0.96 ppm
Elution in saline (ppm) Silver ([7]; day 5): 37.54 ± 0.61 ppm
Elution in saline (ppm) Zinc ([7]; day 5): 27.28 ± 3.01 ppm
Elution in water (ppm) EDTA ([7]; day 5): 23.03 ± 3.46 ppm
Elution in water (ppm) Silver ([7]; day 5): 30.64 ± 5.25 ppm
Elution in water (ppm) Zinc ([7]; day 5): 23.54 ± 1.23 ppm

Source: patent US10874108B2, “Anti-microbial compositions” (5D HEALTH PROTECTION GROUP LTD, priority 2016, dated 2020)
